Tests used:
CDK2/CyclinE = CDK2/CyclinE (Homo sapiens, UniProt P24941); assay: CDK2/CyclinE Flashplate assay, 96-well format, biotinylated-Rb peptide substrate; type: biochemical
Description: This is a CDK2/CyclinE kinase assay in a 96-well Streptavidin-coated Flashplate with a biotinylated-Rb peptide substrate.
(§1) Each point is tested in duplicate
Biotinylated-Rb: Biotin-[…]-OH
• 1. Prepare substrate: 1 mg/ml solution made fresh in PBS. • 2. Add 4 μg per well to the Flashplate. • 3. Incubate for 2 hours at RT. • 4. From 10 mM inhibitor stocks in DMSO, make 1 mM, 300 μM, 100 μM, 30 μM and 10 μM series of dilution in DMSO. • 5. Was the Flashplate 3 times with 300 μl PBS to remove unbound peptide substrate. • 6. Add the CDK2/CyclinE kinase: 200 ng per well, in a volume of 90 μl in kinase buffer (except for “no enzyme” control wells). • 7. Add 1 μl per well of inhibitor to test 10 μM, 3 μM, 1 μM, 0.3 μM and 0.1 μM in final concentration per 100 μl in each well. • 8. Shake gently the Flashplate 1 minute. • 9. Incubate 30 minutes on wet ice. • 10. Initiate the reaction with 10 μl kinase buffer containing 1 μM final cold ATP and 1 μCi final ^33P-ATP per well. • 11. Shake gently the Flashplate 1 minute. • 12. Incubate 45 minutes at RT (no shaking). • 13. Wash the Flashplate 3 times with 300 μl PBS
14. Count to detect the incorporation of ^33P-ATP by the kinase to the Rb phosphorylation site.

CDK4/CyclinD1 = CDK4/CyclinD1 (Homo sapiens, UniProt P11802); assay: CDK4/CyclinD1 Flashplate assay, 96-well format, biotinylated-Rb peptide substrate; type: biochemical
Sequence of CDK4/CyclinD1 (P11802 whole entry, species assumed): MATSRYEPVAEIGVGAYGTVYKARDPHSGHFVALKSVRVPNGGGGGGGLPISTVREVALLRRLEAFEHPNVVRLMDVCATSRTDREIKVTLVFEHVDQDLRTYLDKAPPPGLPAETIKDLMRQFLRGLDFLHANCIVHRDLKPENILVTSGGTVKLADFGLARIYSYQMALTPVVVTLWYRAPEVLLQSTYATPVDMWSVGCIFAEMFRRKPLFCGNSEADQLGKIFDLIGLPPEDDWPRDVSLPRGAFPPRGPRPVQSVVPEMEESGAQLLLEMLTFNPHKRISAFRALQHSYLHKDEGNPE
Sequence of CDK4/CyclinD1 (P24385 whole entry partner, species assumed): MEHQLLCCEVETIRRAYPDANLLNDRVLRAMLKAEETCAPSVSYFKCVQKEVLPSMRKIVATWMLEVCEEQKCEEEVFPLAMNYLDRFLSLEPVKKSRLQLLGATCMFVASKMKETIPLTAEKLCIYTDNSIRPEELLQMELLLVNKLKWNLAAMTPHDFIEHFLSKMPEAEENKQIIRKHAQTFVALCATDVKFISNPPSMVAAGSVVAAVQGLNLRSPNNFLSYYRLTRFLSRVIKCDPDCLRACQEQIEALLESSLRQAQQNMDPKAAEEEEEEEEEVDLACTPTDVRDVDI
Description: This is a CDK4/CyclinD1 kinase assay in a 96-well Streptavidin-coated Flashplate with a biotinylated-Rb peptide substrate.
as §1
Biotinylated-Rb: Biotin-[…]
• 1. Prepare substrate: 1 mg/ml solution made fresh in PBS. • 2. Add 100 μg per well to the Flashplate. • 3. Incubate for 2 hours at RT. • 4. From 10 mM inhibitor stocks in DMSO, make 1 mM, 300 μM, 100 μM, 30 μM and 10 μM series of dilution in DMSO. • 5. Wash the Flashplate 3 times with 300 μl PBS to remove unbound peptide substrate. • 6. Add the CDK4/CyclinD1 kinase: 70 ng per well, in a volume of 90 μl in kinase buffer (except for “no enzyme” control wells). • 7. Add 1 μl^1 per well of inhibitor to test 10 μM, 3 μM, 1 μM, 0.3 μM and 0.1 μM in final concentration per 100 μl in each well. • 8. Shake gently the Flashplate 1 minute. • 9. Incubate 30 minutes on wet ice. • 10. Initiate the reaction with 10 μl kinase buffer containing 1 μM final cold ATP and 1 μCi final ^33P-ATP per well. • 11. Shake gently the Flashplate 1 minute. • 12. Incubate 45 minutes at RT (no shaking). • 13. Wash the Flashplate 3 times with 300 μl PBS • 14. Count to detect the incorporation of ^33P-ATP by the kinase to the Rb phosphorylation site.

IC50 (CDK2/CyclinE) | IC50 (CDK4/CyclinD1) | inhibition at 10 µM (CDK4/CyclinD1) | SMILES
3000 nM | 670 nM | – | O=S(=O)(Oc1ccc2[nH]c(Nc3ccc(N4CCOCC4)cc3)nc2c1)c1ccc(NC2CCCC2)cc1 [Example 70-b, 4-Cyclopentylamino-benzenesulfonic acid 2-(4-morpholin-4-yl-phenylamino)-1H-benzoimidazol-5-yl ester]
500 nM | – | 88% | O=C(Nc1ccc(F)cc1)Nc1nc2cc(OS(=O)(=O)c3ccc(-n4ccnc4)cc3)ccc2[nH]1 [Example 57-f, 4-Imidazol-1-yl-benzenesulfonic acid 2-[3-(4-fluoro-phenyl)-ureido]-1H-benzoimidazol-5-yl ester]
450 nM | 570 nM | – | O=C(Nc1nc2cc(OS(=O)(=O)c3ccc(NC4CCCC4)cc3)ccc2[nH]1)Nc1ccccc1F [Example 37, 4-Cyclopentylamino-benzenesulfonic acid 2-[3-(2-fluoro-phenyl)-ureido]-1H-benzoimidazol-5-yl ester]
800 nM | 500 nM | – | CN(C)c1ccc(Nc2nc3cc(OS(=O)(=O)c4ccc(NC5CCCC5)cc4)ccc3[nH]2)cc1 [Example 70-e, 4-Cyclopentylamino-benzenesulfonic acid 2-(4-dimethylamino-phenylamino)-1H-benzoimidazol-5-yl ester]
2000 nM | 470 nM | – | COC(=O)Nc1nc2cc(OS(=O)(=O)c3ccc(NCC(=O)O)cc3)ccc2[nH]1 [Example 7, Methyl-5-(4-[N-Glycinyl]-phenylsulfonyloxy) benzimidazole-2-carbamate]
300 nM | – | 81% | O=C(Nc1nc2cc(OS(=O)(=O)c3ccc(NC4CCCC4)cc3)ccc2[nH]1)N1CCC1 [Example 58-i, 4-Cyclopentylamino-benzenesulfonic acid 2-[(azetidine-1-carbonyl)-amino]-1H-benzoimidazol-5-yl ester]
1000 nM | – | – | COC(=O)Nc1nc2cc(OS(=O)(=O)c3ccc(OCC(=O)N4CCCC4)cc3)ccc2[nH]1 [Example 65, 4-(2-oxo-2-pyrrolidin-1-yl-ethoxy)-benzenesulfonic acid 2-methoxycarbonylamino-1H-benzoimidazol-5-yl-ester]
1090 nM | 3710 nM | – | O=C(Nc1ccc(Cl)cc1)Nc1nc2cc(OS(=O)(=O)c3ccc(NC4CCCC4)cc3)ccc2[nH]1 [Example 40, 4-Cyclopentylamino-benzenesulfonic acid 2-[3-(4-chloro-phenyl)-ureido]-1H-benzoimidazol-5-yl ester]
1000 nM | – | – | COC(=O)Nc1nc2cc(OS(=O)(=O)c3ccccc3OC(F)(F)F)ccc2[nH]1 [Example 62-g, 2-Trifluoromethoxy-benzenesulfonic acid 2-methoxycarbonylamino-1H-benzoimidazol-5-yl ester]
1500 nM | – | – | COC(=O)Nc1nc2cc(OS(=O)(=O)c3ccsc3C(=O)OC)ccc2[nH]1 [Example 62-j, 3-(2-Methoxycarbonylamino-1H-benzoimidazol-5-yloxysulfonyl)-thiophene-2-carboxylic acid methyl ester]
5000 nM | – | – | COc1cc(Nc2nc3cc(OS(=O)(=O)c4ccc(NC5CCCC5)cc4)ccc3[nH]2)cc(C(F)(F)F)c1 [Example 70-f, 4-Cyclopentylamino-benzenesulfonic acid 2-(3-methoxy-5-trifluoromethyl-phenylamino)-1H-benzoimidazol-5-yl ester]
1500 nM | – | – | CCOC(=O)c1cccc(Nc2nc3cc(OS(=O)(=O)c4ccc(NC5CCCC5)cc4)ccc3[nH]2)c1 [Example 70-g, 3-[5-(4-Cyclopentylamino-benzenesulfonyloxy)-1H-benzoimidazol-2-ylamino]-benzoic acid ethyl ester]
100 nM | – | – | O=C(NCc1cccnc1)Nc1nc2cc(OS(=O)(=O)c3ccc(-n4ccnc4)cc3)ccc2[nH]1 [Example 57-j, 4-Imidazol-1-yl-benzenesulfonic acid 2-(3-pyridin-3-ylmethyl-ureido)-1H-benzoimidazol-5-yl ester]
100 nM | – | – | O=C(NCc1ccccc1F)Nc1nc2cc(OS(=O)(=O)c3ccc(NC4CCCC4)cc3)ccc2[nH]1 [Example 58-h, 4-Cyclopentylamino-benzenesulfonic acid 2-[3-(2-fluoro-benzyl)-ureido]-1H-benzoimidazol-5-yl ester]
1000 nM | – | – | COC(=O)Nc1nc2cc(OS(=O)(=O)c3ccc(OCC(=O)NCc4ccco4)cc3)ccc2[nH]1 [Example 66-c, 4-{[(furan-2-ylmethyl)-carbamoyl]-methoxy}-benzenesulfonic acid 2-methoxycarbonylamino-1H-benzoimidazol-5-yl ester]
800 nM | – | – | COC(=O)Nc1nc2cc(OS(=O)(=O)c3ccc(-c4ccon4)s3)ccc2[nH]1 [Example 62-c, 5-Isoxazol-3-yl-thiophene-2-sulfonic acid 2-methoxycarbonylamino-1H-benzoimidazol-5-yl ester]
1500 nM | – | – | COC(=O)Nc1nc2cc(OS(=O)(=O)c3cccc(OC(F)(F)F)c3)ccc2[nH]1 [Example 62-f, 3-Trifluoromethoxy-benzenesulfonic acid 2-methoxycarbonylamino-1H-benzoimidazol-5-yl ester]
– | 2000 nM | – | CC(C)N(CCNc1ccc(S(=O)(=O)Oc2ccc3[nH]c(NC(=O)C4CC4)nc3c2)cc1)C(C)C [Example 60-t, 4-(2-Diisopropylamino-ethylamino)-benzenesulfonic acid 2-(cyclopropanecarbonyl-amino)-1H-benzoimidazol-5-yl ester]
– | 4370 nM | – | COCCOc1ccc(S(=O)(=O)Oc2ccc3nc(NC(=O)OC)[nH]c3c2)cc1 [Example 64-c, 4-(2-Methoxy-ethoxy)-benzenesulfonic acid 2-methoxycarbonylamino-3H-benzoimidazol-5-yl ester]
– | 2500 nM | – | COC(=O)Nc1nc2cc(OS(=O)(=O)c3cccc([N+](=O)[O-])c3)ccc2[nH]1 [Example 62-l, 3-Nitro-benzenesulfonic acid 2-methoxycarbonylamino-1H-benzoimidazol-5-yl ester]
– | – | 90% | CCNC(=O)Nc1nc2cc(OS(=O)(=O)c3ccc(NCCOC)cc3)ccc2[nH]1 [Example 78-h, 4-(2-Methoxy-ethylamino)-benzenesulfonic acid 2-[3-(2-ethyl)-ureido]-1H-benzoimidazol-5-yl ester]
– | – | 78% | COCCNC(=O)Nc1nc2cc(OS(=O)(=O)c3ccc(NC(C)CO)cc3)ccc2[nH]1 (stereo not shown) [Example 78-k, 4-(2-Hydroxy-1-methyl-ethylamino)-benzenesulfonic acid 2-[3-(2-methoxy-ethyl)-ureido]-1H-benzoimidazol-5-yl ester]
– | 1800 nM | – | CCN(CC)CCNc1ccc(S(=O)(=O)Oc2ccc3[nH]c(NC(=O)C4CC4)nc3c2)cc1 [Example 60-q, 4-(2-Diethylamino-ethylamino)-benzenesulfonic acid 2-(cyclopropanecarbonyl-amino)-1H-benzoimidazol-5-yl ester]
– | – | 97% | CC(CO)Nc1ccc(S(=O)(=O)Oc2ccc3[nH]c(NC(=O)NCCN4CCOCC4)nc3c2)cc1 (stereo not shown) [Example 78-i, 4-(2-Hydroxy-1-methyl-ethylamino)-benzenesulfonic acid 2-[3-(2-morpholin-4-yl-ethyl)-ureido]-1H-benzoimidazol-5-yl ester]
– | 400 nM | – | CC(C)(CO)CNc1ccc(S(=O)(=O)Oc2ccc3[nH]c(NC(=O)C4CC4)nc3c2)cc1 [Example 60-l, 4-(3-Hydroxy-2,2-dimethyl-propylamino)-benzenesulfonic acid 2-(cyclopropanecarbonyl-amino)-1H-benzoimidazol-5-yl ester]
130 nM | – | – | CN(C)CCNC(=O)Nc1nc2cc(OS(=O)(=O)c3ccc(NC4CCCC4)cc3)ccc2[nH]1 [Example 44, 4-Cyclopentylamino-benzenesulfonic acid 2-[3-(2-dimethylamino-ethyl)-ureido]-1H-benzoimidazol-5-yl ester]
– | 150 nM | – | CNc1ccc(S(=O)(=O)Oc2ccc3[nH]c(NC(=O)C4CC4)nc3c2)cc1 [Example 60-b, 4-Methylamino-benzenesulfonic acid 2-(cyclopropanecarbonyl-amino)-1H-benzoimidazol-5-yl ester]
